Among the data in BindingDB's records for doi:10.7270/Q2N301S8 (D3R/Abbott, 2020) are IC50 values, retold here.

The assay deals with Beta-secretase 1 (Homo sapiens, UniProt P56817). Description: D3R2027.
Excerpt: D3R2027

Chain of Beta-secretase 1 (P56817 whole entry): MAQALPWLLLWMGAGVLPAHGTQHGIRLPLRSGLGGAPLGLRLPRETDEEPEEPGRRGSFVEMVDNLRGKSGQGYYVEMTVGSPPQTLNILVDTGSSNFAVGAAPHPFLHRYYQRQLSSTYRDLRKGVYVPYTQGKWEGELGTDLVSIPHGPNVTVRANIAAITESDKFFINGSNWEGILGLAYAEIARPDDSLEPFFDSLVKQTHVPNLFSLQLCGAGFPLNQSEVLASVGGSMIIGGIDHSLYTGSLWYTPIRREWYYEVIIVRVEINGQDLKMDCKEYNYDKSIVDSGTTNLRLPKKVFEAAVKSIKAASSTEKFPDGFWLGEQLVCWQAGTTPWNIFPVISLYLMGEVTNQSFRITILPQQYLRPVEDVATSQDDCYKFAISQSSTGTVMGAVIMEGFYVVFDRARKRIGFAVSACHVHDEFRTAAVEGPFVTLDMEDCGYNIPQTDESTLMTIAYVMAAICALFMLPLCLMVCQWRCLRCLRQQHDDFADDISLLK

Molecule `COCc1cc2cc(c1)C(=O)N[C@H]([C@H](O)CNC1(c3cccc(C(C)C)c3)CC1)C/C(C)=C/COCCCCN2` [BACE_77] displayed an IC50 of 79 nM.

In turn, `CC(C)c1cccc(CNC[C@@H](O)[C@@H]2C[C@H](C)CCCCCN([C@H](C)c3ccccc3)C(=O)c3cc(cc(-c4ncco4)c3)C(=O)N2)c1` [BACE_7] showed an IC50 of 2 nM.

Consider `CC(=O)COc1cc2cc(c1)C(=O)N[C@H]([C@H](O)CNCc1cccc(C(C)C)c1)Cc1cccc(c1)OCCCCO2` [BACE_16], for which the IC50 was 34 nM.

Molecule `Cc1cc2cc(n1)CCCCCc1cccc(c1)C[C@@H]([C@H](O)CNCc1cccc(C(C)C)c1)NC2=O` [BACE_113] returned an IC50 of 1600 nM.

In the case of `CC(C)Cc1cncc(C(C)(C)NC[C@@H](O)[C@@H]2C[C@H](C)CCCCCCCCC(=O)N(C)[C@@H](C)C(=O)N2)c1` [BACE_26], the midpoint of inhibition, the IC50, lay at 270 nM.

As to `COc1cc2cc(n1)N(C)CCCCc1cccc(c1)C[C@@H]([C@H](O)CNCc1cccc(C(C)C)c1)NC2=O` [BACE_99], the IC50 was 89 nM.

The molecule `CC(C)c1cccc(CNC[C@@H](O)[C@@H]2C[C@H](C)CC/C=C/CCCCC(=O)N(C)[C@@H](C)C(=O)N2)c1` [BACE_21] returned an IC50 of 300 nM.

On to `CC(C)c1cccc(CNC[C@@H](O)[C@@H]2C[C@H](C)CCCCCCCN(C)c3cc(ccn3)C(=O)N2)c1` [BACE_42], for which the midpoint of inhibition, the IC50, lay at 740 nM.

Take `C[C@@H]1CCCCCCCCS(=O)(=O)C[C@@H](C)C(=O)N[C@H]([C@H](O)CNC2(c3cccc(C(C)(C)C)c3)CC2)C1` [BACE_38]: it took 24 nM to reach half-maximal inhibition (IC50).

For the molecule `COCc1cc2cc(c1)C(=O)N[C@H]([C@H](O)CNCc1cc(OC)cc(OC)c1)C[C@H](C)CCCCCCCN2` [BACE_61], the IC50 was found to be 1500 nM.

In turn, `Cc1cc2cc(n1)OCCCCOc1cccc(c1)C[C@@H]([C@H](O)CN[C@H]1CC(C)(C)Oc3ccc(C(C)C)cc31)NC2=O` [BACE_111] displayed an IC50 of 3 nM.

With `CCCCNC(=O)[C@H](C)C[C@H](O)[C@@H]1C[C@H](C)CCCCCCC[C@H](NC(=O)OC(C)(C)C)C(=O)N[C@@H](C)C(=O)N1` [BACE_149], it took 3 nM to reach half-maximal inhibition (IC50).

For `CCN1CCCCC[C@@H](C)C[C@@H]([C@H](O)CNCc2cccc(C(C)C)c2)NC(=O)c2cccc(c2)C1=O` [BACE_6], the IC50 turned out to be 21 nM.

`C[C@@H]1CCCCCCCCC(=O)N(C)[C@@H](C)C(=O)N[C@H]([C@H](O)CNC2(c3cc(C(C)(C)C)ccn3)CC2)C1` [BACE_23] yielded an IC50 of 2 nM.

In turn, `Cc1cc2cc(n1)NCCCCCCC[C@@H](C)C[C@@H]([C@H](O)CNCc1cccc(C(C)C)c1)NC2=O` [BACE_41] had an IC50 of 29 nM.

In turn, `C[C@@H]1CCCCCCCCS(=O)(=O)C[C@@H](C)C(=O)N[C@H]([C@H](O)CN[C@@H](C)c2cc(CC(C)(C)C)on2)C1` [BACE_39] came in with an IC50 of 21 nM.

Regarding `CCCc1cc(CNC[C@@H](O)[C@@H]2C[C@H](C)CCCCCCOCC(=O)N(C)[C@@H](C)C(=O)N2)n[nH]1` [BACE_5], the IC50 was found to be 400 nM.

The molecule `C[C@H]1C(=O)N[C@H]([C@H](O)CNC2(c3cccc(Br)c3)CC2)Cc2cccc(c2)OCCCCCC(=O)N1C` [BACE_90] returned an IC50 of 170 nM.

On to `CC(C)c1cccc(C(C)(C)NC[C@@H](O)[C@@H]2C[C@H](C)CCCCCCCNc3cccc(c3)C(=O)N2)c1` [BACE_55], for which the midpoint of inhibition, the IC50, lay at 540 nM.

`COCc1cc2cc(c1)C(=O)N[C@H]([C@H](O)CNC1(c3cccc(C(C)C)c3)CC1)Cc1cccc(c1)OCCCO2` [BACE_140]: half-maximal inhibition (IC50) required 78 nM.

On to `NC[C@@H](O)[C@@H]1Cc2cccc(c2)OC/C=C\CNc2cc(cc(Cl)n2)C(=O)N1` [BACE_104], for which the IC50 came out at 40000 nM.

`CC(=O)COc1cc2cc(c1)C(=O)N[C@H]([C@H](O)CNCc1cc(C(C)(C)C)ccn1)Cc1cccc(c1)CCCCO2` [BACE_135]: it took 10 nM to reach half-maximal inhibition (IC50).

`C[C@@H]1CCCCCCCCC(=O)N(C)[C@@H](C)C(=O)N[C@H]([C@H](O)CN[C@@H](C)c2cc(CC(C)(C)C)on2)C1` [BACE_30] gave an IC50 of 1 nM.

Consider `CCCCNC(=O)[C@H](C)C[C@H](O)[C@@H]1C[C@H](C)CCCCC[C@H](C)CCC(=O)N(C)[C@@H](C)C(=O)N1` [BACE_148], for which the 50% inhibitory concentration (IC50) was 41 nM.

Molecule `CC(C)c1cccc(CNC[C@@H](O)[C@@H]2C[C@H](C)CCCCCCCCC(=O)N3CCCC[C@H]3C(=O)N2)c1` [BACE_85] yielded an IC50 of 1500 nM.

In turn, `CC(C)c1cccc(C(C)(C)NC[C@@H](O)[C@@H]2Cc3cccc(c3)OCCCCNc3cccc(n3)C(=O)N2)c1` [BACE_122] had an IC50 of 2300 nM.

The molecule `CC(C)c1cccc(CNC[C@@H](O)[C@@H]2C[C@H](C)C/C=C\CCCCNc3cc(cc(Cl)n3)C(=O)N2)c1` [BACE_46] came in with an IC50 of 9.5 nM.

The molecule `COCc1cc2cc(c1)C(=O)N[C@H]([C@H](O)CNCc1ccc3c(c1)OCCCO3)C[C@H](C)CCCCCCCN2` [BACE_62] gave an IC50 of 3400 nM.

In turn, `CC(C)(C)c1ccnc(C2(NC[C@@H](O)[C@@H]3Cc4cccc(c4)CCCCNc4cc(cc(-c5ncco5)c4)C(=O)N3)CC2)c1` [BACE_119] registered an IC50 of 1.5 nM.

As for `COCc1cc2cc(c1)C(=O)N[C@H]([C@H](O)CNC(C)(C)c1cc(C(C)(C)C)ccn1)Cc1cccc(c1)OCCCCN2` [BACE_124], the IC50 is 25 nM.

Molecule `CC(C)Oc1ccc(C2CC2)cc1CNC[C@@H](O)[C@@H]1C[C@H](C)CCCCCCOCC(=O)N(C)[C@@H](C)C(=O)N1` [BACE_36] had an IC50 of 1500 nM.

For `C[C@@H]1CCCCCCCCC(=O)N(C)[C@@H](C)C(=O)N[C@H]([C@H](O)CNC(C)(C)c2cc(CC(C)(C)C)on2)C1` [BACE_27], half-maximal inhibition (IC50) required 5.8 nM.

Take `COCc1cc2cc(c1)C(=O)N[C@H]([C@H](O)CNCc1cnn(CC(C)C)c1)Cc1cccc(c1)OCCCCN2` [BACE_127]: the IC50 turned out to be 100 nM.

In turn, `C[C@@H]1CCCCCCCOc2cc(ccn2)C(=O)N[C@H]([C@H](O)CNC(C)(C)c2cc(CC(C)(C)C)on2)C1` [BACE_84] showed an IC50 of 31 nM.

For the molecule `CC(C)Cc1cncc(C(C)(C)NC[C@@H](O)[C@@H]2Cc3cccc(c3)OCCCCNc3cccc(c3)C(=O)N2)c1` [BACE_123], inhibition was half-maximal at 260 nM (IC50).

Molecule `COCc1cc2cc(c1)C(=O)N[C@H]([C@H](O)CNC(C)(C)c1cc(CC(C)(C)C)on1)Cc1cccc(c1)OCCCCN2` [BACE_117] yielded an IC50 of 6.5 nM.

Regarding `CC(C)c1cccc(CNC[C@@H](O)[C@@H]2C[C@H](C)CCCCCCCC[C@@]3(O)CCC[C@H](C3)C(=O)N2)c1` [BACE_86], the half-inhibitory concentration (IC50) was determined as 1700 nM.

`C[C@@H]1CCCCCCCOc2cccc(c2)C(=O)N[C@H]([C@H](O)CN[C@@H](C)c2cc(CC(C)(C)C)on2)C1` [BACE_79] came in with an IC50 of 300 nM.

Regarding `C[C@@H]1CCCCCCCNc2cccc(c2)C(=O)N[C@H]([C@H](O)CNC2(c3cccc(C(C)(C)C)c3)COC2)C1` [BACE_56], the IC50 is 170 nM.

For `CCN1CCCCC[C@@H](C)C[C@@H]([C@H](O)CNCc2cccc(C(C)C)c2)NC(=O)c2cc(cc(-c3ncco3)c2)C1=O` [BACE_40], 3.5 nM corresponded to half-maximal inhibition (IC50).

Molecule `CC(C)c1cccc(CNC[C@@H](O)[C@@H]2Cc3cccc(c3)OCCCCS(=O)(=O)C[C@@H](C)C(=O)N2)c1` [BACE_94] registered an IC50 of 29 nM.

On to `COCc1cc2cc(c1)C(=O)N[C@H]([C@H](O)CN[C@H]1CC(C)(C)Oc3ccc(C(C)C)cc31)C[C@H](C)CCCCCCCN2` [BACE_63], for which the IC50 was 1 nM.

The molecule `CCCNc1cc(COC)cc(C(=O)N[C@@H](Cc2cccc(OC)c2)[C@H](O)CNCc2cccc(C(C)C)c2)c1` [BACE_146] registered a half-inhibitory concentration (IC50) of 3100 nM.

`CC(C)c1cccc(CNC[C@@H](O)[C@@H]2C[C@H](C)CCCCCCCOc3cc(cc(N(C)S(C)(=O)=O)c3)C(=O)N2)c1` [BACE_82]: the midpoint of inhibition, the IC50, lay at 11 nM.

`Cc1cc2cc(n1)NN(C(=O)c1ccc(F)cc1)CCCCCC[C@@H](C)C[C@@H]([C@H](O)CNCc1cccc(C(C)C)c1)NC2=O` [BACE_50] displayed an IC50 of 46 nM.

`C[C@@H]1CCCCCCCCC(=O)N(C)[C@@H](C)C(=O)N[C@H]([C@H](O)CO)C1` [BACE_143] yielded an IC50 of 61000 nM.

Take `Cc1cc2cc(c1)OCCCCNc1cc(cc(Cl)n1)C(=O)N[C@H]([C@H](O)CNCc1cccc(C(C)C)c1)C2` [BACE_105]: half-maximal inhibition (IC50) required 68 nM.

Molecule `Cc1cc2cc(n1)N(C)CCCCCC[C@@H](C)C[C@@H]([C@H](O)CNCc1cccc(C(C)C)c1)NC2=O` [BACE_44] registered an IC50 of 2100 nM.

`CC(C)(C)c1ccnc(CNC[C@@H](O)[C@@H]2Cc3cccc(c3)OC/C=C\CNc3cc(cc(Cl)n3)C(=O)N2)c1` [BACE_103]: the IC50 was 89 nM.
